Results taken from US5639715A, “Aqueous based drilling fluid additive and composition” (M-I Drilling Fluids LLC, priority 1994, dated 1997).

Experiments:
Format in all cases: physicochemical
[1] = lubricity coefficient, Baroid lubricity meter (Table 4); conditions: 1% solution in deionized water
Method: A 1% solution of surfactant as in deionized water was tested on a Baroid lubricity meter (Model No. 21200-EP/Lubricity Tester). The lubricity coefficient of the samples were calculated and recorded in Table 4. Deionized water was used as base.

[2] = surface tension measurement at various concentrations and temperatures
Method: The surface tension measurement were carried out on Monawet SNO-35 and coco diethanolamide (CDA) at various concentrations and various temperatures. The following results establish that the higher surface tension values of the products of this invention when compared to the prior art, coco diethanolamide (CDA), would have lower foaming in drilling fluid applications.

[3] = coefficient of friction on sandstone, Lubricity Evaluation Monitor (LEM) (Table 5); conditions: 1/2% in 22.5 ppb bentonite slurry
Method: The following experiment shower the lubricity properties of surfactants of this invention in 22.5 ppb bentonite slurry in water. The coefficient of friction on sandstone was determined using a Lubricity Evaluation Monitor (LEM) designed by M-I Drilling Fluids Company.

For `CCCCCCCCCCCCCCCCCCN(C(=O)CC(C(=O)O)S(=O)(=O)O)C(CC(=O)O)C(=O)O` (stereo not shown) [Monawet SNO-35, tetrasodium N-(1,2-dicarboxyethyl) N-alkyl (C18) sulfosuccinamate], which Lubricity coefficient [1] is on record?
The Lubricity coefficient was “.095”.

And the “% Reduction (lubricity coefficient)” value ([1]; versus DI water)?
Its value is 72%.

What about the “Surface Tension” value ([2]; 0.1% in DI water, 24 °C) of the same compound?
Its value is 51 dynes per centimeter.

What about the “Surface Tension” value ([2]; 0.1% in DI water, 38 °C) of the same compound?
The value was 47 dynes per centimeter.

What about the “Surface Tension” value ([2]; 0.1% in DI water, 43 °C) of the same compound?
Its value is 45 dynes per centimeter.

What about the “Surface Tension” value ([2]; 0.1% in DI water, 50 °C) of the same compound?
The value was 44 dynes per centimeter.

What about the “Surface Tension” value ([2]; 1.0% in DI water, 24 °C) of the same compound?
Its value is 49 dynes per centimeter.

What about the “Surface Tension” value ([2]; 1.0% in DI water, 36 °C) of the same compound?
The value was 42 dynes per centimeter.

What about the “Surface Tension” value ([2]; 1.0% in DI water, 45 °C) of the same compound?
The value was 38 dynes per centimeter.

What about the “Surface Tension” value ([2]; 1.0% in DI water, 50 °C) of the same compound?
Its value is 37 dynes per centimeter.

What about the “Surface Tension” value ([2]; 2.0% in DI water, 24 °C) of the same compound?
The value was 46 dynes per centimeter.

And the “Surface Tension” value ([2]; 2.0% in DI water, 38 °C)?
The value was 41 dynes per centimeter.

What about the “Surface Tension” value ([2]; 2.0% in DI water, 44 °C) of the same compound?
The value was 39 dynes per centimeter.

What about the “Surface Tension” value ([2]; 2.0% in DI water, 49 °C) of the same compound?
Its value is 37 dynes per centimeter.

And the “% Reduction (coefficient of friction)” value [3]?
Its value is 73.9%.

What about the “Coefficient of Friction” value [3] of the same compound?
Its value is 0.168.
